Laboratory results: US10981879B2, “Thioether triazolopyridine and triazolopyrimidine inhibitors of myeloperoxidase” (BRISTOL-MYERS SQUIBB COMPANY, priority 2014, dated 2021)

biological target: T1, myeloperoxidase (MPO) (Homo sapiens (Human), UniProt P05164); test: MPO peroxidation assay (Amplex Red); type: biochemical; details: Table 1
Method: MPO peroxidation activity was measured in 100 mM KPi (pH 7.4) by utilizing the non-fluorescent reagent Amplex Red (Invitrogen catalog #A12222) which can be oxidized to the highly fluorescent resorufin. Amplex Red is oxidized by the peroxidase action of MPO to resorufin. Reactions were carried out in 50 μL total volume by adding a 25 μL mixture of 200 pM myeloperoxidase and 40 nM H2O2 (Sigma #349887) to 100 nL inhibitor in 100% DMSO in a 384 well Perkin Elmer Optiplate. Enzyme and compound were preincubated for ten minutes at rt.
After the ten minute preincubation, 25 μL of an Amplex Red mixture containing 200 μM Amplex Red and 10 mM H2O2 was added to the plate. Kinetic determinations were carried out immediately on a Perkin Elmer Envision (15 minute kinetic read, Ex: 535 nm, Em: 590 nm).
IC50 values were calculated by determining the slope of the linear portion of the kinetic trace (180-540 secs), and using that calculated slope to determine % inhibition occurring at each concentration of inhibitor using the following equation:
[formula] where A=minimal Y value (activity level of inhibited sample), B=maximal Y value (activity level of uninhibited sample), C=Log IC50, D=Hill Slope, x=concentration of inhibitor. MPO Chlorination Assay

T1 sequence (P05164 49-745): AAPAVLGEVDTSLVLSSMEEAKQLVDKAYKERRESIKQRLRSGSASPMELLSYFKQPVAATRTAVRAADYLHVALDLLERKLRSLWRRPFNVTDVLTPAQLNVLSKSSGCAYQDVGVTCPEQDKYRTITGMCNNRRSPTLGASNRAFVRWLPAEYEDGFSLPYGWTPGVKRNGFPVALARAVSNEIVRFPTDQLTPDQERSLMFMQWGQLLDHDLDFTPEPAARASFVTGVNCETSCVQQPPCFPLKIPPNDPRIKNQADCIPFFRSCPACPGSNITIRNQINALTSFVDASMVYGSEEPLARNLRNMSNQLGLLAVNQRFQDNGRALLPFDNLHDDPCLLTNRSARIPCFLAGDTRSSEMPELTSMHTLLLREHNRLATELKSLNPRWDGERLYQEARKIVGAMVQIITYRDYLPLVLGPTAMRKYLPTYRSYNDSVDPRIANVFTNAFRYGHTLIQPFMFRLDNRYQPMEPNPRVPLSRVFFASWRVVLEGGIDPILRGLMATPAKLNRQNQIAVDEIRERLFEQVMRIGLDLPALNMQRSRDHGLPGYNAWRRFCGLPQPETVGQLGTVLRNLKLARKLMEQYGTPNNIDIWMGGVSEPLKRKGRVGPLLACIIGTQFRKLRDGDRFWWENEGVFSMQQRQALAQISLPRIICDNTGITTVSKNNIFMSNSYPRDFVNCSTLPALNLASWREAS

IC50 | SMILES
790 nM | Nc1nc(SCc2ccccc2CN2CCCC2)c2nn[nH]c2n1 [Example 166, 7-((2-(pyrrolidin-1-ylmethyl)benzyl)thio)-3H-[1,2,3]triazolo[4,5-d] pyrimidin-5-amine]
530 nM | Nc1cc(SCc2ccccc2CN2CCC(Oc3ccccc3)C2)c2nn[nH]c2n1 (centres unmarked) [Example 98, 7-((2-((3-phenoxypyrrolidin-1-yl)methyl)benzyl)thio)-3H-[1,2,3]triazolo[4,5-b] pyridin-5-amine]
10 nM | CS(=O)(=O)c1ccc(CSc2cc(N)nc3[nH]nnc23)c(Cl)c1 [Example 104, 7-((2-chloro-4-(methylsulfonyl)benzyl)thio)-3H-[1,2,3]triazolo[4,5-b]pyridin-5-amine]
220 nM | CCn1ncc(CSc2nc(N)nc3[nH]nnc23)c1C(F)(F)F [Example 164, 7-(((1-ethyl-5-(trifluoromethyl)-1H-pyrazol-4-yl)methyl)thio)-3H-[1,2,3]triazolo[4,5-d] pyrimidin-5-amine]

The next lines start with the molecule.

SMILES | IC50
Nc1cc(SCc2cn(-c3cnccn3)nc2C(F)F)c2nn[nH]c2n1 [Example 145] | 30 nM
Cc1nn(-c2ccccc2)c(Cl)c1CSc1cc(N)nc2[nH]nnc12 [Example 79, 7-(((5-chloro-3-methyl-1-phenyl-1H-pyrazol-4-yl)methyl)thio)-3H-[1,2,3] triazolo[4,5-b]pyridin-5-amine] | 30 nM

biological target: T1, myeloperoxidase (MPO); test: MPO chlorination assay (APF); type: biochemical; details: MPO chlorination assay (APF), Table 1; read-out: APF IC50
In short: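 Human MPO (200 pM) with 120 mM NaCl preincubated with inhibitor 10 minutes at rt in 100 mM KPi pH 7.4. Reaction started with APF mixture containing 10 μM H2O2; fluorescein fluorescence (ex 485/em 535 nm) read kinetically 3 minutes. IC50 from slopes of linear kinetic portion, fitted with a four-parameter Hill equation.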

IC50 | SMILES
570 nM | Nc1nc(SCc2ccccc2CN2CCCC2)c2nn[nH]c2n1 [Example 166, 7-((2-(pyrrolidin-1-ylmethyl)benzyl)thio)-3H-[1,2,3]triazolo[4,5-d] pyrimidin-5-amine]
640 nM | Nc1cc(SCc2ccccc2CN2CCC(Oc3ccccc3)C2)c2nn[nH]c2n1 (centres unmarked) [Example 98, 7-((2-((3-phenoxypyrrolidin-1-yl)methyl)benzyl)thio)-3H-[1,2,3]triazolo[4,5-b] pyridin-5-amine]
90 nM | CS(=O)(=O)c1ccc(CSc2cc(N)nc3[nH]nnc23)c(Cl)c1 [Example 104, 7-((2-chloro-4-(methylsulfonyl)benzyl)thio)-3H-[1,2,3]triazolo[4,5-b]pyridin-5-amine]
770 nM | CCn1ncc(CSc2nc(N)nc3[nH]nnc23)c1C(F)(F)F [Example 164, 7-(((1-ethyl-5-(trifluoromethyl)-1H-pyrazol-4-yl)methyl)thio)-3H-[1,2,3]triazolo[4,5-d] pyrimidin-5-amine]

Further lines, the molecule ahead of its results:

SMILES | IC50
Nc1cc(SCc2cn(-c3cnccn3)nc2C(F)F)c2nn[nH]c2n1 [Example 145] | 80 nM
Cc1nn(-c2ccccc2)c(Cl)c1CSc1cc(N)nc2[nH]nnc12 [Example 79, 7-(((5-chloro-3-methyl-1-phenyl-1H-pyrazol-4-yl)methyl)thio)-3H-[1,2,3] triazolo[4,5-b]pyridin-5-amine] | 7 nM

same assay, conditions: MPO chlorination assay, ranges given; read-out: MPO chlorination assay IC50

IC50 | SMILES
200 to 1000 nM | Cn1nc(C(F)(F)F)c(CSc2nc(N)nc3[nH]nnc23)c1F [Example 160, 7-(((5-fluoro-1-methyl-3-(trifluoromethyl)-1H-pyrazol-4-yl)methyl)thio)-3H-[1,2,3]triazolo[4,5-d] pyrimidin-5-amine]
60 to 200 nM | Cn1nc(C2CC2)cc1CSc1cc(N)nc2[nH]nnc12 [Example 100, 7-(((3-cyclopropyl-1-methyl-1H-pyrazol-5-yl)methyl)thio)-3H-[1,2,3]triazolo[4,5-b]pyridin-5-amine]
200 to 1000 nM | N#Cc1ccc(F)cc1CSc1nc(N)nc2[nH]nnc12 [Example 157, 2-(((5-amino-3H-[1,2,3]triazolo[4,5-d]pyrimidin-7-yl)thio)methyl)-4-fluorobenzonitrile]
200 to 1000 nM | Nc1cc(SCc2cn(-c3ccnnc3)nc2C(F)F)c2nn[nH]c2n1 [Example 143]
60 to 200 nM | CN(C)Cc1ccccc1CSc1cc(N)nc2[nH]nnc12 [Example 96, 7-((2-((dimethylamino)methyl)benzyl)thio)-3H-[1,2,3]triazolo[4,5-b]pyridin-5-amine]
60 to 200 nM | Nc1cc(SCc2ccccc2CN2CCOCC2)c2nn[nH]c2n1 [Example 94, 7-((2-(morpholinomethyl)benzyl)thio)-3H-[1,2,3] triazolo[4,5-b]pyridin-5-amine]
60 to 200 nM | Nc1cc(SCc2cnn(-c3ccccc3)c2C(F)(F)F)c2nn[nH]c2n1 [Example 114, 7-(((1-phenyl-5-(trifluoromethyl)-1H-pyrazol-4-yl)methyl)thio)-3H-[1,2,3]triazolo[4,5-b] pyridin-5-amine]
60 to 200 nM | Nc1cc(SCc2cn(C3CCCCC3)nc2C(F)(F)F)c2nn[nH]c2n1 [Example 115, 7-(((1-cyclohexyl-3-(trifluoromethyl)-1H-pyrazol-4-yl)methyl)thio)-3H-[1,2,3]triazolo[4,5-b] pyridin-5-amine]

The next lines start with the molecule.

SMILES | IC50
Cn1nc(C(F)(F)F)c(CSc2cc(N)nc3[nH]nnc23)c1Cl [Example 78, 7-(((5-chloro-1-methyl-3-(trifluoromethyl)-1H-pyrazol-4-yl)methyl)thio)-3H-[1,2,3]triazolo[4,5-b] pyridin-5-amine] | ≤ 60 nM
Nc1cc(SCc2cn(-c3ccncc3)nc2C(F)(F)F)c2nn[nH]c2n1 [Example 137] | ≤ 60 nM
Cn1nc(-c2ccccc2)cc1CSc1cc(N)nc2[nH]nnc12 [Example 33, 7-(((1-methyl-3-phenyl-1H-pyrazol-5-yl)methyl)thio)-3H-[1,2,3]triazolo[4,5-b] pyridin-5-amine] | 60 to 200 nM
Nc1cc(SCc2cccc(F)c2)c2nn[nH]c2n1 [Example 6, 7-((3-fluorobenzyl)thio)-3H-[1,2,3]triazolo [4,5-b]pyridin-5-amine] | ≤ 60 nM
Nc1cc(SC(CCCNCc2ccccc2)c2ccccc2)c2nn[nH]c2n1 (centres unmarked) [Example 14, 7-((4-(Benzylamino)-1-phenylbutyl)thio)-3H-[1,2,3]triazolo[4,5-b]pyridin-5-amine] | ≤ 60 nM
Nc1cc(SCc2ccccc2)c2nn[nH]c2n1 [Example 1, 7-(Benzylthio)-3H-[1,2,3]triazolo[4,5-b]pyridin-5-amine] | ≤ 60 nM
CS(=O)(=O)c1ccc(F)cc1CSc1cc(N)nc2[nH]nnc12 [Example 53, 7-((5-fluoro-2-(methylsulfonyl)benzyl)thio)-3H-[1,2,3]triazolo[4,5-b]pyridin-5-amine] | 60 to 200 nM
N#Cc1cc(Cl)ccc1CSc1cc(N)nc2[nH]nnc12 [Example 74, 2-(((5-amino-3H-[1,2,3]triazolo[4,5-b]pyridin-7-yl)thio)methyl)-5-chlorobenzonitrile] | ≤ 60 nM
Nc1cc(SCc2ccccc2-c2ccccn2)c2nn[nH]c2n1 [Example 92, 7-((2-(pyridin-2-yl)benzyl)thio)-3H-[1,2,3]triazolo[4,5-b]pyridin-5-amine] | 60 to 200 nM
Cc1nn(-c2ccccc2)nc1CSc1cc(N)nc2[nH]nnc12 [Example 65, 7-(((5-methyl-2-phenyl-2H-1,2,3-triazol-4-yl)methyl)thio)-3H-[1,2,3]triazolo[4,5-b]pyridin-5-amine] | 60 to 200 nM
CCc1nn(-c2ccccc2)nc1CSc1cc(N)nc2[nH]nnc12 [Example 63, 7-(((5-ethyl-2-phenyl-2H-1,2,3-triazol-4-yl)methyl)thio)-3H-[1,2,3]triazolo[4,5-b]pyridin-5-amine] | 60 to 200 nM
Cc1ccc(-c2nc(CSc3cc(N)nc4[nH]nnc34)c(C)s2)cc1 [Example 22, 7-(((5-methyl-2-(p-tolyl)thiazol-4-yl)methyl)thio)-3H-[1,2,3]triazolo[4,5-b]pyridin-5-amine] | 60 to 200 nM
Cn1nc(-c2ccccc2)c(Cl)c1CSc1cc(N)nc2[nH]nnc12 [Example 112, 7-(((4-chloro-1-methyl-3-phenyl-1H-pyrazol-5-yl)methyl)thio)-3H-[1,2,3] triazolo[4,5-b]pyridin-5-amine] | ≤ 60 nM
COc1ccc(CSc2cc(N)nc3[nH]nnc23)cc1 [Example 9, 7-((4-methoxybenzyl)thio)-3H-[1,2,3]triazolo [4,5-b]pyridin-5-amine] | ≤ 60 nM
Nc1cc(SCc2cnn(Cc3ccccc3)c2)c2nn[nH]c2n1 [Example 32, 7-(((1-benzyl-1H-pyrazol-4-yl)methyl)thio)-3H-[1,2,3] triazolo[4,5-b]pyridin-5-amine] | 60 to 200 nM
N#Cc1cccc(C2CC2)c1CSc1cc(N)nc2[nH]nnc12 [Example 89, 2-(((5-amino-3H-[1,2,3]triazolo[4,5-b]pyridin-7-yl)thio)methyl)-3-cyclopropylbenzonitrile] | 60 to 200 nM
Nc1cc(SCc2c(F)cc(Cl)cc2F)c2nn[nH]c2n1 [Example 23, 7-((4-chloro-2,6-difluorobenzyl)thio)-3H-[1,2,3]triazolo[4,5-b]pyridin-5-amine] | ≤ 60 nM
N#Cc1ccc(-n2cccn2)cc1CSc1cc(N)nc2[nH]nnc12 [Example 12, 2-(((5-Amino-3H-[1,2,3]triazolo[4,5-b]pyridin-7-yl)thio)methyl)-4-(1H-pyrazol-1-yl)benzonitrile] | ≤ 60 nM
CN(C)CCC(Sc1cc(N)nc2[nH]nnc12)c1ccccc1 (centres unmarked) [Example 44, 7-((3-(dimethylamino)-1-phenylpropyl)thio)-3H-[1,2,3]triazolo[4,5-b]pyridin-5-amine] | 60 to 200 nM
Cc1nn(CC2CC2)c(C)c1CSc1cc(N)nc2[nH]nnc12 [Example 80, 7-(((1-(cyclopropylmethyl)-3,5-dimethyl-1H-pyrazol-4-yl)methyl)thio)-3H-[1,2,3] triazolo[4,5-b]pyridin-5-amine] | 60 to 200 nM
COC(=O)c1ccc(F)c(CSc2cc(N)nc3[nH]nnc23)c1 [Example 52, methyl 3-(((5-amino-3H-[1,2,3]triazolo[4,5-b]pyridin-7-yl)thio)methyl)-4-fluorobenzoate] | 60 to 200 nM
CC(Sc1cc(N)nc2[nH]nnc12)c1ccccc1S(C)(=O)=O (centres unmarked) [Example 54, 7-((1-(2-(methylsulfonyl)phenyl)ethyl)thio)-3H-[1,2,3]triazolo[4,5-b]pyridin-5-amine] | 60 to 200 nM
Nc1cc(SCc2cn(-c3ccccc3)nn2)c2nn[nH]c2n1 [Example 34, 7-(((1-phenyl-1H-1,2,3-triazol-4-yl)methyl)thio)-3H-[1,2,3]triazolo[4,5-b]pyridin-5-amine] | 60 to 200 nM
N#Cc1ccc(F)cc1CSc1cc(N)nc2[nH]nnc12 [Example 20, 2-(((5-amino-3H-[1,2,3]triazolo[4,5-b]pyridin-7-yl)thio)methyl)-4-fluorobenzonitrile] | ≤ 60 nM
